The record followed here is patent publication US20060216699A1, “Peptides for the detection of HIV-1 group O” (priority 1998, published 2006).

The test system of experiment [1] is antibodies to HIV-1 group O. The experiment is described as follows: Chemiluminescent ELISA: serially diluted peptide on streptavidin-coated wells, serum ODS007b 1:60, anti-human IgG:HRP, luminol. It is filed as binding. Conditions: serum ODS007b 1:60. How it is done:
To compare the performance of peptide 147 to another genuine group O sequence, the peptide corresponding to the ANT70 sequence was synthesized (peptide 80). Peptides 147 and 80 were dissolved at the same concentration, serially diluted, and bound to streptavidin-coated wells. A 1:60 dilution of serum sample ODS007b (see Table 3) was added to all wells and incubated. After washing, an anti-human IgG:HRP conjugate was added, incubated, and the wells again thoroughly washed. In this case, a chemiluminescent substrate was used, consisting of luminol and a peracid salt. The emitted light was quantified using a luminometer. The results are tabulated in Table 4 and shown graphically in FIG. 2.
(In general: An ELISA detects its analyte on a solid surface through an enzyme-linked reagent.)

For experiment [2], the system named is anti-HIV-1 group O antibodies present in human serum. The experiment is described as follows: Antibody capture format: peptide on solid phase, bound antibody detected with peptide-HRP conjugate. Conditions: same peptide as Ag and as HRP conjugate (1:100). The experiment is classed as binding. The procedure: In peptide 147-5, the N-terminal glycine was added to function as a spacer group, while the arginine in position 2 was added to enhance the solubility of the peptide in aqueous buffers. Both of these peptides were evaluated for their ability to be recognized by HIV-1 group O serum samples in an antibody capture format. In general, in such an assay, a peptide is bound to a solid phase and bivalent antibody presents in a sample binds to the peptide linked thereto. Bound antibody is subsequently detected using a conjugate made of the peptide in question coupled to horseradish peroxidase. The peptide-HRP conjugate binds to antibody which in turn is bound to the solid phase linked peptide. Methods suitable for preparing such conjugates may be found readily in the scientific literature and are well known to those versed in the art.
Microwell plates were pre-coated with either peptide 147-4 or 147-5. A dilution of a serum sample was then incubated for 1 hour at 37° C., after which the plate was washed extensively. A 1:100 dilution of either peptide 147-4 or 147-5 conjugated to HRP was then added and allowed to incubate for an additional hour at 37° C. Following this incubation, the plates were again thoroughly washed. The presence of bound conjugate was detected by addition of substrate for HRP (O-phenylenediamine) and H2O2.
The peptides were evaluated for their ability to be recognized by anti-HIV-1 group O antibodies present in human serum from infected individuals. All group O samples were confirmed to be positive for HIV-1 group O by reverse transcriptase-polymerase chain reaction (RT-PCR) amplification of viral gp41 sequences using O-specific primers. The identity of the PCR product was further confirmed by DNA sequencing.

For a further experiment, the system named is group O antibody. The experiment is described as follows: ELISA with recombinant antigen coated at 0.5 μg/ml, group O sera, HRP-labeled mouse anti-human IgG. It is filed as binding. The procedure:
Performance of group M/group O “mosaic” constructs for group O antibody detection. The protein expressed as described was coated at a concentration of 0.5 μg/ml into the wells of microtiter plates for evaluation. Following coating of the protein, any remaining binding sites on the plastic were block with bovine serum albumin. Dilutions of group O sera were then tested for their ability to recognize the recombinant antigen. Bound antibodies were detected by incubation with HRP-labeled mouse anti-human IgG conjugate, and the bound conjugate was subsequently detected by addition of OPD and H2O2.

For a further experiment, the system named is type B sample. In words: ELISA with recombinant antigen coated at 0.5 μg/ml, type B sample. It is filed as binding, human.

As for “NQQLLSLWGCKGKLVCYTSVKWN (Human immunodeficiency virus type 1) [peptide 80, reference compound]”, the luminescent units was 0.387 luminescent units in experiment [1] (peptide 0.020 ug/ml); 0.376 luminescent units in experiment [1] (peptide 0.039 ug/ml); 0.621 luminescent units in experiment [1] (peptide 0.078 ug/ml); 1.288 luminescent units in experiment [1] (peptide 0.156 ug/ml); 2.294 luminescent units in experiment [1] (peptide 0.313 ug/ml); 2.854 luminescent units in experiment [1] (peptide 0.625 ug/ml). Moreover, the luminescent units is reported as 2.908 luminescent units in experiment [1] (peptide 1.250 ug/ml) and 1.821 luminescent units in experiment [1] (peptide 2.500 ug/ml).

Take “GRETLMQDQQRLNSWGCKGRIICYTSARWH (HIV Consensus) [peptide 147-5, longer variant of peptide 147 with N-terminal glycine spacer and arginine to enhance solubility]”: the “Optical Density (OD)492” value in experiment [2] (negative control) is 0.022 OD; in experiment [2] (sample ODS001 (1:200)), greater than 2.500 OD; in experiment [2] (sample ODS002 (1:175)), 1.343 OD; in experiment [2] (sample ODS006 (1:100)), 0.266 OD; in experiment [2] (sample ODS007 (1:1,500)) it was 0.316 OD.

With “EQQRLNSWGCKGRIICYTSARWH (HIV Consensus) [peptide 147-4, variant of peptide 147]”, the “Optical Density (OD)492” value in experiment [2] (negative control) is 0.010 OD; in experiment [2] (sample ODS001 (1:200)), greater than 2.500 OD; in experiment [2] (sample ODS002 (1:175)), 0.785 OD; in experiment [2] (sample ODS006 (1:100)), 0.133 OD; in experiment [2] (sample ODS007 (1:1,500)) it was 0.241 OD.

B1: DHFR-hES-MH: truncated dihydrofolate reductase fusion, mosaic group M/group O gp41 recombinant antigen with myc sequence and his6 tail (protein)
chain: MRGSGIMVRPLNSIVAVSQNMGIGKNGDLPWPPLRNEFKYFQRMTTTSSVEGKQNLVIMGRKTWFSIPEKNRPLKDRINIVLSRELKEPPRGAHFLAKSLDDALRLIEQPELASKVDMVWIVGGSSVYQEAMNQPGHLRLFVTRIMQEFESDTFFPEIDLGKYKLLPEYPGVLSEVQEEKGIKYKFEVYEKKGSRSARLLLSGIVQQQNNLLRAIEAQQHMLQLTAWGIKQLRARLQALETLMQNQQRLNSWGCKGRIICYTSARWHASWSNKSLEDIWDNMTWMQWDQQVNNVSSIIYDKILEAQDQQEENVRELLELDKWASLWNWFDITNWLWYIKIFIMIVGPEQKLISEEDLNSAVDHHHHHH
modifications: HIV Consensus
Regarding B1, the OD492 in the experiment with group O antibody (sample ODS001 (dilution)) is listed as 1.179 OD; in the experiment on group O antibody (sample ODS002 (dilution)) it was 1.323 OD; in the experiment on group O antibody (sample neg. control 1), −0.061 OD; with type B sample, 0.685 OD.
